Test results published in patent US20160311831A1, “Imidazotriazinones as PDE1 Inhibitors” (H. Lundbeck A/S, priority 2015, published 2016).
pIC50: −log10 of the molar value.

Experiments:
Assay type in all cases: biochemical
PDE1A = PDE1A (Homo sapiens, UniProt P54750); experiment: PDE1 inhibition assay (PDE1A), SPA with tritium labelled cAMP; conditions: 15 nM tritium labelled cAMP, 1 hr at room temperature
Protocol: (§1) PDE1A, PDE1B and PDE1C assays were performed as follows: the assays was performed in 60 μL samples containing a fixed amount of the PDE1 enzym1 (sufficient to convert 20-25% of the cyclic nucleotide substrate), a buffer (50 mM HEPES pH 7.6; 10 mM MgCl2; 0.02% Tween20), 0.1 mg/mL BSA, 15 nM tritium labelled cAMP and varying amounts of inhibitors. Reactions were initiated by addition of the cyclic nucleotide substrate, and reactions were allowed to proceed for 1 hr at room temperature before being terminated through mixing with 20 μL (0.2 mg) yttrium silicate SPA beads (PerkinElmer). The beads were allowed to settle for 1 hr in the dark before the plates were counted in a Wallac 1450 Microbeta counter. The measured signals were converted to activity relative to an uninhibited control (100%) and IC50 values were calculated using XIFit (model 205, IDBS).

PDE1B = PDE1B (Homo sapiens, UniProt Q01064); experiment: PDE1 inhibition assay (PDE1B), SPA with tritium labelled cAMP; conditions: 15 nM tritium labelled cAMP, 1 hr at room temperature
Chain of PDE1B (Q01064 whole entry): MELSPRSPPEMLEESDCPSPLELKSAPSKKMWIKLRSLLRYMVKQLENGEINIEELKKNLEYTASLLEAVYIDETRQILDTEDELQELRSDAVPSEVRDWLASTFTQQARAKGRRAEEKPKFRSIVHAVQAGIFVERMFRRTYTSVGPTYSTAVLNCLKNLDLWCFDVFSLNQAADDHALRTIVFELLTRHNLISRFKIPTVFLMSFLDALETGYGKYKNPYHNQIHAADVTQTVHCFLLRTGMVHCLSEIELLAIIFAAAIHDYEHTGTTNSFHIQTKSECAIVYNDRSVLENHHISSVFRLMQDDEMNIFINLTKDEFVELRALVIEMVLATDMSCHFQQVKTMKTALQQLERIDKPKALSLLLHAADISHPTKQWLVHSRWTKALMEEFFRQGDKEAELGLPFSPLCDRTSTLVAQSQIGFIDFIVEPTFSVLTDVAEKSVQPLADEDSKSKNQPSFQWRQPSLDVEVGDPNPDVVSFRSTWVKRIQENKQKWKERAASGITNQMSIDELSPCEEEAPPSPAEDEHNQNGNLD
Protocol: as §1

PDE1C = PDE1C (Homo sapiens, UniProt Q14123); experiment: PDE1 inhibition assay (PDE1C), SPA with tritium labelled cAMP; conditions: 15 nM tritium labelled cAMP, 1 hr at room temperature
Chain of PDE1C (Q14123 whole entry): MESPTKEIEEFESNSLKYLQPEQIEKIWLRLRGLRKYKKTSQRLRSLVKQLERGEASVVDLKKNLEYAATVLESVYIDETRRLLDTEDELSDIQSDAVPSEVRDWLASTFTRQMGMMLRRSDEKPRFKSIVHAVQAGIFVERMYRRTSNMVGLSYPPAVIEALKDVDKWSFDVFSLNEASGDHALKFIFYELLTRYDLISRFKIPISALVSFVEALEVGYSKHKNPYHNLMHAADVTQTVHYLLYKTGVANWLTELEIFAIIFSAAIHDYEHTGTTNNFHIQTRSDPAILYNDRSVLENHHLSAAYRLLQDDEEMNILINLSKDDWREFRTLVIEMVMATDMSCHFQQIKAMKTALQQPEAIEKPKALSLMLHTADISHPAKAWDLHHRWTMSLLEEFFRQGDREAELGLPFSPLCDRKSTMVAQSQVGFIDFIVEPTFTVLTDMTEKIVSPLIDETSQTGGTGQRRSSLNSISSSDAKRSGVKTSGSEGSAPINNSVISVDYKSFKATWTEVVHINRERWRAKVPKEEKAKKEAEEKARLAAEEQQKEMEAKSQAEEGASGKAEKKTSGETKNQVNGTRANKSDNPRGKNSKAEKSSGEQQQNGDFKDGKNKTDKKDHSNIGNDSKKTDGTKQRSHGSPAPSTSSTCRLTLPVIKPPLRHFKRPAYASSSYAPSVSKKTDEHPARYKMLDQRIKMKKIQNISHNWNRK
Protocol: as §1

PDE9 = PDE9 (Homo sapiens, UniProt O76083); experiment: PDE9 inhibition assay, SPA with 3H-cAMP; conditions: compound at 10 microM; 10 nM 3H-cAMP, 1 hr incubation
Chain of PDE9 (O76083 whole entry): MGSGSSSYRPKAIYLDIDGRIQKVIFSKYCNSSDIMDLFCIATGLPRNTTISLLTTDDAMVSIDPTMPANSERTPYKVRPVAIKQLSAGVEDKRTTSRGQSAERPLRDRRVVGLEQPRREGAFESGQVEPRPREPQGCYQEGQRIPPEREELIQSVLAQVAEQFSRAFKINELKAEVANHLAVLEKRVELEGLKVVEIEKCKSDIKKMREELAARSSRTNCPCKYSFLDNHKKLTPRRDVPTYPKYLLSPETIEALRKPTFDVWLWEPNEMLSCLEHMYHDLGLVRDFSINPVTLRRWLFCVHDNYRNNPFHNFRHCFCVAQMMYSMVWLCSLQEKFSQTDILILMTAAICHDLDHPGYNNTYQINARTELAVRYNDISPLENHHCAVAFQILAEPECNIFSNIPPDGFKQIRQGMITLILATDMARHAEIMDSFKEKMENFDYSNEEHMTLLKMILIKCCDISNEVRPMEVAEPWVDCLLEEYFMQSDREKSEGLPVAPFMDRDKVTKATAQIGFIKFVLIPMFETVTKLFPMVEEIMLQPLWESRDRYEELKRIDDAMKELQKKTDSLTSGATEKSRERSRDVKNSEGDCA
Protocol: A PDE9 assay may for example, be performed as follows: The assay is performed in 60 μL samples containing a fixed amount of the relevant PDE enzyme (sufficient to convert 20-25% of the cyclic nucleotide substrate), a buffer (50 mM HEPES7.6; 10 mM MgCl2; 0.02% Tween20), 0.1 mg/mL BSA, 225 pCi of ^3H-labelled cyclic nucleotide substrate, tritium labeled cAMP to a final concentration of 5 nM and varying amounts of inhibitors. Reactions are initiated by addition of the cyclic nucleotide substrate, and reactions are allowed to proceed for one hr at room temperature before being terminated through mixing with 15 μL 8 mg/mL yttrium silicate SPA beads (Amersham). The beads are allowed to settle for one hr in the dark before the plates are counted in a Wallac 1450 Microbeta counter. The measured signal can be converted to activity relative to an uninhibited control (100%) and IC50 values can be calculated using the Xlfit extension to EXCEL.
In the context of the present invention the assay was performed in 60 uL assay buffer (50 mM HEPES pH 7.6; 10 mM MgCl2; 0.02% Tween20) containing enough PDE9 to convert 20-25% of 10 nM ^3H-cAMP and varying amounts of inhibitors. Following a 1 hr incubation the reactions were terminated by addition of 15 uL 8 mg/mL yttrium silicate SPA beads (Amersham). The beads were allowed to settle for one hr in the dark before the plates were counted in a Wallac 1450 Microbeta counter.

Chain of PDE1A (P54750 whole entry): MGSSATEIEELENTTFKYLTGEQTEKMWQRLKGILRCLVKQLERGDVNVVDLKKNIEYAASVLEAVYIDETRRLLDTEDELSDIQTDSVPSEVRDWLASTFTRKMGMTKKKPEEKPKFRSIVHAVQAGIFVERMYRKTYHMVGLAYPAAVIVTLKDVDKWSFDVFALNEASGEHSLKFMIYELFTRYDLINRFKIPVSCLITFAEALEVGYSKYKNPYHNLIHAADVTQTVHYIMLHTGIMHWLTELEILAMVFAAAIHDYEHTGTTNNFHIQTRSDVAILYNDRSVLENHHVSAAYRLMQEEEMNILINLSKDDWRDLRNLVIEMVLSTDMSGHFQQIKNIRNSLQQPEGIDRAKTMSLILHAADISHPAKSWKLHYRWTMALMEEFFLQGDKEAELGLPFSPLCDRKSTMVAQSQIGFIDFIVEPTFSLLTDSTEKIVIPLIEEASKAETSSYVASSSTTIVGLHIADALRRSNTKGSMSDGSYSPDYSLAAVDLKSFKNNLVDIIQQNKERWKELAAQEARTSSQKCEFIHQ

**Q.** How did the pIC50 (PDE1A) turn out when `COc1ccc(Cn2c(C)nn3c(C4CCOCC4)ncc3c2=O)cc1` [Example 23, 3-(4-Methoxybenzyl)-2-methyl-7-(tetrahydro-2H-pyran-4-yl)imidazo[5,1-f][1,2,4]triazin-4(3H)-one] was run?
**A.** 7.54

**Q.** And the pIC50 (PDE1B)?
**A.** 7.59

**Q.** What about the pIC50 (PDE1C) of the same compound?
**A.** 7.68

**Q.** What about the inhibition at 10 µM (PDE9) of the same compound?
**A.** -4%

**Q.** With `Cc1ccc(Cc2nn3c(C4CCOCC4)ncc3c(=O)n2CC2CCCC2)cc1` [Example 6, 3-(Cyclopentylmethyl)-2-(4-methylbenzyl)-7-(tetrahydro-2H-pyran-4-yl)imidazo[5,1-f][1,2,4]triazin-4(3H)-one] as the compound, how does the pIC50 (PDE1A) read?
**A.** 7.54

**Q.** What about the pIC50 (PDE1B) of the same compound?
**A.** 7.20

**Q.** What about the pIC50 (PDE1C) of the same compound?
**A.** 8.40

**Q.** What about the inhibition at 10 µM (PDE9) of the same compound?
**A.** 2%

**Q.** Which results are given for `Cc1ccc(Cn2c(C)nn3c(C4CCOCC4)ncc3c2=O)cc1` [Example 22, 2-Methyl-3-(4-methylbenzyl)-7-(tetrahydro-2H-pyran-4-yl)imidazo[5,1-f][1,2,4]triazin-4(3H)-one]?
**A.** pIC50 (PDE1A): 7.24; pIC50 (PDE1B): 7.18; pIC50 (PDE1C): 7.11; inhibition at 10 µM (PDE9): 18%

**Q.** What does the source list for `CCc1nn2c(C3CCOCC3)ncc2c(=O)n1Cc1cccc(F)c1` [Example 25, 2-Ethyl-3-(3-fluorobenzyl)-7-(tetrahydro-2H-pyran-4-yl)imidazo[5,1-f][1,2,4]triazin-4(3H)-one]?
**A.** pIC50 (PDE1A): 7.28; pIC50 (PDE1B): 6.88; pIC50 (PDE1C): 7.82; inhibition at 10 µM (PDE9): 8%

**Q.** Which results are given for `Cc1ccc(Cc2nn3c(C4CCOCC4)ncc3c(=O)n2CC2CCC(C)CC2)cc1` (single isomer, unassigned) [11 Stereoisomer 2]?
**A.** pIC50 (PDE1A): 8.10; pIC50 (PDE1B): 8.00; pIC50 (PDE1C): 8.30; % inhibition of PDE9 at 10 microM (PDE9): 15%

**Q.** What does the source list for `Cc1ccc(Cc2nn3c(C4CCOCC4)ncc3c(=O)n2CC2CCOCC2)cc1` [Example 9, 2-(4-Methylbenzyl)-7-(tetrahydro-2H-pyran-4-yl)-3-((tetrahydro-2H-pyran-4-yl)methyl)imidazo[5,1-f][1,2,4]triazin-4(3H)-one]?
**A.** pIC50 (PDE1A): 6.23; pIC50 (PDE1B): 6.44; pIC50 (PDE1C): 7.64; inhibition at 10 µM (PDE9): 12%

**Q.** `Cc1ccc(Cc2nn3c(C4CCOCC4)ncc3c(=O)n2CC(C)C)cc1` [Example 5, 3-isobutyl-2-(4-methylbenzyl)-7-(tetrahydro-2H-pyran-4-yl)imidazo[5,1-f][1,2,4]triazin-4(3H)-one] was tested. Which pIC50 (PDE1A) did it give?
**A.** 7.33

**Q.** What about the pIC50 (PDE1B) of the same compound?
**A.** 7.28

**Q.** And the pIC50 (PDE1C)?
**A.** 7.42

**Q.** What about the inhibition at 10 µM (PDE9) of the same compound?
**A.** -3%

**Q.** `Cc1ccc(Cc2nn3c(C4CCOCC4)ncc3c(=O)n2CC2CCCCC2)cc1` [Example 7, 3-(Cyclohexylmethyl)-2-(4-methylbenzyl)-7-(tetrahydro-2H-pyran-4-yl)imidazo[5,1-f][1,2,4]triazin-4(3H)-one] was tested. Which pIC50 (PDE1A) did it give?
**A.** 7.40

**Q.** What about the pIC50 (PDE1B) of the same compound?
**A.** 7.59

**Q.** And the pIC50 (PDE1C)?
**A.** 7.96

**Q.** And the inhibition at 10 µM (PDE9)?
**A.** 11%

**Q.** With `Cc1ccc(Cc2nn3c(C4CCOCC4)ncc3c(=O)n2C)cc1` [Example 2, 3-Methyl-2-(4-methylbenzyl)-7-(tetrahydro-2H-pyran-4-yl)imidazo[5,1-f][1,2,4]triazin-4(3H)-one] as the compound, how does the pIC50 (PDE1A) read?
**A.** 6.14

**Q.** And the pIC50 (PDE1B)?
**A.** 6.59

**Q.** And the pIC50 (PDE1C)?
**A.** 6.01

**Q.** What about the inhibition at 10 µM (PDE9) of the same compound?
**A.** 4%

**Q.** `Cc1ccc(Cc2nn3c(C4CCOCC4)ncc3c(=O)n2CC2CCC2)cc1` [Example 10, 3-(Cyclobutylmethyl)-2-(4-methylbenzyl)-7-(tetrahydro-2H-pyran-4-yl)imidazo[5,1-f][1,2,4]triazin-4(3H)-one] was tested. Which pIC50 (PDE1A) did it give?
**A.** 6.61

**Q.** And the pIC50 (PDE1B)?
**A.** 6.99

**Q.** And the pIC50 (PDE1C)?
**A.** 7.21

**Q.** And the inhibition at 10 µM (PDE9)?
**A.** -11%

**Q.** How did the pIC50 (PDE1C) turn out when `O=c1c2cnc(C3CCOCC3)n2ncn1CC1CCCC1` [Example 28, 3-(Cyclopentylmethyl)-7-(tetrahydro-2H-pyran-4-yl)imidazo[5,1-f][1,2,4]triazin-4(3H)-one] was run?
**A.** 7.07

**Q.** And the inhibition at 10 µM (PDE9)?
**A.** 10%

**Q.** How did the pIC50 (PDE1C) turn out when `O=c1c2cnc(C3CCOCC3)n2ncn1Cc1cccc(F)c1` [Example 27, 3-(3-Fluorobenzyl)-7-(tetrahydro-2H-pyran-4-yl)imidazo[5,1-f][1,2,4]triazin-4(3H)-one] was run?
**A.** 6.36

**Q.** What about the inhibition at 10 µM (PDE9) of the same compound?
**A.** 17%

**Q.** With `Cc1ccc(Cc2nn3c(C4CCOCC4)ncc3c(=O)n2CC2CCOC2)cc1` (single isomer, unassigned) [12 Stereoisomer 1] as the compound, how does the pIC50 (PDE1B) read?
**A.** 6.59

**Q.** And the pIC50 (PDE1C)?
**A.** 6.98

**Q.** What about the “% inhibition of PDE9 at 10 microM” value (PDE9) of the same compound?
**A.** 3%
